8 compounds from patent US4442108A, “Hydrogenated isoquinolines and peripheral vascular disease treating compositions thereof” (Laboratoires Sobio S.A. of Immeuble Perisud, priority 1981, dated 1984) can be followed below.

The nature of series [1]: Acute toxicity, LD50 in mice (method of Litchfield and Wilcoxon), intravenous route. The following applies: in vivo. How it is done:
LD50 values in mice for several compounds of the invention were obtained by the method of Litchfield and Wilcoxon (J. Pharmacol. (1949), 96.99) after the administration of the test compound by intravenous route (i.v.) in the mouse (CD, males 18-24 g) in a volume of 0.40 ml/20 g of body weight. The mortality is noted 7 days after administration.

Series [2] has as its system isolated ileum of the guinea pig. The series can be described thus: Spasmolytic activity in vitro, barium chloride contraction of isolated ileum. Conditions: Cavia porcellus, Tyrode liquid, 37° C., barium chloride as contracting agent, product added 30 seconds before, read-out: EC50 (concentration required to cause inhibition of contraction in 50% of the population). It is filed as cell-based. How it is done: The tests are carried out on isolated ileum of the guinea pig surviving in Tyrode liquid, aerated and maintained at 37° C. The products are added 30 seconds before affusion of barium chloride used as contracting agent. The concentrations required to cause inhibition of contraction in 50% of the population (EC50) was given in table II compared with papaverine.

Series [3] has as its system dogs anaesthetized with chloralose. The series can be described thus: Cardiovascular activity in anaesthetized dogs. It is filed as in vivo, dog. The following applies: i.v., 1/15 to 1/30 of the mouse i.v. LD50. How it is done: The following parameters were recorded in dogs anaesthetized with chloralose, and under artificial respiration:
left ventricular contractile force.
The compounds tested were injected intravenously in a dose of from (1/15) to (1/30) of the LD50 (i.v.) previoulsy determined in mice.

Setting [4] is: mouse CD males, i.v., 0.40 ml/20 g, mortality noted 7 days after administration, limits p = 0.05 in brackets.
Setting [5] is: mouse, read-out: LD50 and limits (p = 0.05).

Where a name gives a salt, the structure may show the parent alone. Read-outs that look alike come from different tables or passages of the source.

As usually defined, the LD50 is the dose expected to kill half of the subjects tested. `CCOc1cc2c(cc1OCC)C(Cc1ccc(OC(C)C)c(OC(C)C)c1)NCC2` (centres unmarked) [Example 11, 6,7-Diethoxy-1-(3',4'-diisopropoxybenzyl)-1,2,3,4-tetrahydroisoquinoline hydrochloride] showed an LD50 at 168 h in series [1] (setting [4]) of 22 mg/kg. Besides, in series [2], the EC50 is 60 µM.
As for `CCOc1ccc(CC2=NCCc3cc(OC(C)C)c(OC(C)C)cc32)cc1OCC` [Example 2, 1-(3'4'-Diethoxybenzyl)-6,7-diisopropoxy-3,4-dihydroisoquinoline hydrochloride], the LD50 at 168 h in series [1] (setting [5]) was 8.2 mg/kg. In addition, in series [3], the “effect on blood pressure (mean aortic pressure)” value (shortened to “effect on blood pressure”) is listed as “transient hypotension” and the “effect on left ventricular contractile force” value is “reduction in the amplitude of ventricular contraction”. In series [2], the EC50 was found to be 4.2 µM.
`COc1ccc(Cc2nccc3cc(OC)c(OC)cc23)cc1OC` [Papauerine HCl, reference compound]: the EC50 in series [2] amounted to 980 µM.
Take `CCCOc1cc2c(cc1OCCC)C(Cc1ccc(OCC)c(OCC)c1)=NCC2.Cl` [Example 4, 1-(3',4'-Diethoxybenzyl)-6,7-di-n-propoxy-3,4-dihydroisoquinoline hydrochloride]: in series [1] (setting [4]), the LD50 at 168 h is 13.5 mg/kg. Moreover, in series [3], the “effect on blood pressure” value is recorded as “transient hypotension” and the “effect on left ventricular contractile force” value is recorded as “reduction in the amplitude of ventricular contraction”. The EC50 in series [2] amounted to 3.7 µM.
With `CCCOc1ccc(CC2=NCCc3cc(OCC)c(OCC)cc32)cc1OCCC.Cl` [Example 3, 6,7-Diethoxy-1-(3',4'-di-n-propoxybenzyl)-3,4-dihydroisoquinoline hydrochloride], in series [1] (setting [4]), the LD50 at 168 h turned out to be 17.5 mg/kg. Also, in series [3], the “effect on blood pressure” value is listed as “transient hypotension” and the “effect on left ventricular contractile force” value was “reduction in the amplitude of ventricular contraction”. Further, the EC50 in series [2] worked out at 3.2 µM.
Regarding `CCOc1cc2c(cc1OCC)C(Cc1ccc(OC(C)C)c(OC(C)C)c1)=NCC2` [Example 1, 6,7-Diethoxy-1-(3'4'-diisopropoxybenzyl-3,4-dihydroisoquinoline hydrochloride], the LD50 at 168 h in series [1] (setting [5]) came out at 19 mg/kg. Also, in series [3], the “effect on blood pressure” value is “transient hypotension” and the “effect on left ventricular contractile force” value was “reduction in the amplitude of ventricular contraction”. The EC50 in series [2] was determined as 11 µM.
As to `COc1ccc(Cc2nccc3cc(OC)c(OC)cc23)cc1OC` [papaverine, 1-(3',4'-dimethoxybenzyl)-6,7-dimethoxy isoquinoline, reference compound], in series [3], the “effect on blood pressure” value was “transient hypotension”, the “effect on cardiac frequency” value is recorded as “tachycardia” and the “effect on left ventricular contractile force” value was “increase of the ventricular contractile force”.
For the compound `CCOc1ccc(CC2NCCc3cc(OC(C)C)c(OC(C)C)cc32)cc1OCC.Cl` (centres unmarked) [Example 10, 1-(3',4'-Diethoxybenzyl)-6,7-diisopropoxy-1,2,3,4-tetrahydroisoquinoline hydrochloride], in series [1] (setting [4]), the LD50 at 168 h was 19 mg/kg. In series [3], the “effect on blood pressure” value is “transient hypotension” and the “effect on left ventricular contractile force” value is on record as “reduction in the amplitude of ventricular contraction”. Also, the EC50 in series [2] turned out to be 10 µM.
